Measurements: the NIST ThermoML archive (doi:10.1021/je060271a)
“And” between values parts separate entries of the source, which are not always exact repeats. Equal entries are not always repeated.

Details: 303.16 K, Liquid, Vibrating tube method

CCCC(=O)OCC(COC(=O)CCC)(COC(=O)CCC)COC(=O)CCC [pentaerythritol tetrabutyrate]
Details | mass density
3999.8 kPa | 1044.9 kg/m3
4021.6 kPa | 1044.7 kg/m3
4043.6 kPa | 1044.8 kg/m3
4069.7 kPa | 1044.7 kg/m3
4092.1 kPa | 1044.9 kg/m3
4114.1 kPa | 1044.9 kg/m3
4137.5 kPa | 1044.9 kg/m3
4161.7 kPa | 1045 kg/m3
4182.5 kPa | 1044.9 kg/m3
4206.7 kPa | 1045.1 kg/m3
4227.1 kPa | 1044.9 kg/m3
4251.9 kPa | 1044.9 kg/m3
4272.5 kPa | 1044.9 kg/m3
4293.5 kPa | 1045.1 kg/m3
4314.4 kPa | 1045 kg/m3
4335.5 kPa | 1045 kg/m3
4361 kPa | 1045.1 kg/m3
4381.9 kPa | 1045 kg/m3
4403.9 kPa | 1045 kg/m3
4429.5 kPa | 1045.1 kg/m3
4451.4 kPa | 1045.1 kg/m3
4473.3 kPa | 1044.9 kg/m3
4495 kPa | 1045.2 kg/m3
4520.9 kPa | 1045.2 kg/m3
4542.9 kPa | 1045.2 kg/m3
4569.8 kPa | 1045.3 kg/m3
4592.6 kPa | 1045.1 kg/m3
4616.5 kPa | 1045.2 kg/m3
4644.7 kPa | 1045.3 kg/m3
4667.4 kPa | 1045.2 kg/m3
4686.4 kPa | 1045.3 kg/m3
4703.6 kPa | 1045.4 kg/m3
4720.4 kPa | 1045.3 kg/m3
4741.5 kPa | 1045.3 kg/m3
4758.3 kPa | 1045.4 kg/m3
4771.9 kPa | 1045.4 kg/m3
4786.8 kPa | 1045.4 kg/m3
4797.7 kPa | 1045.2 kg/m3
4827.1 kPa | 1045.4 kg/m3
4830.1 kPa | 1045.3 kg/m3
4830.9 kPa | 1045.3 kg/m3
4834.9 kPa | 1045.4 kg/m3
4837.9 kPa | 1045.4 kg/m3
4839.4 kPa | 1045.4 kg/m3
4840.5 kPa | 1045.3 kg/m3
4841.7 kPa | 1045.4 kg/m3
4842.2 kPa | 1045.4 kg/m3
4842.7 kPa | 1045.4 kg/m3
4842.9 kPa | 1045.3 kg/m3
4843.4 kPa | 1045.4 kg/m3 and 1045.3 kg/m3
4843.9 kPa | 1045.3 kg/m3 and 1045.4 kg/m3
4844.1 kPa | 1045.3 kg/m3
4844.4 kPa | 1045.4 kg/m3
4865 kPa | 1045.3 kg/m3
4897.7 kPa | 1045.4 kg/m3
4931.1 kPa | 1045.4 kg/m3
4970.1 kPa | 1045.4 kg/m3
4994.6 kPa | 1045.4 kg/m3
5016.4 kPa | 1045.4 kg/m3
5038.9 kPa | 1045.5 kg/m3
5061.8 kPa | 1045.5 kg/m3
5088.8 kPa | 1045.5 kg/m3
5111.4 kPa | 1045.4 kg/m3
5139.1 kPa | 1045.4 kg/m3
5162.8 kPa | 1045.5 kg/m3
5186.5 kPa | 1045.5 kg/m3
5210.6 kPa | 1045.6 kg/m3
5239.4 kPa | 1045.7 kg/m3
5264.7 kPa | 1045.6 kg/m3
5290.3 kPa | 1045.6 kg/m3
5317.3 kPa | 1045.7 kg/m3
5342.9 kPa | 1045.5 kg/m3
5367.5 kPa | 1045.7 kg/m3
5393.1 kPa | 1045.6 kg/m3
5414.2 kPa | 1045.7 kg/m3
5436 kPa | 1045.7 kg/m3
5462.1 kPa | 1045.7 kg/m3
5484.2 kPa | 1045.7 kg/m3
5506.7 kPa | 1045.7 kg/m3
5533.5 kPa | 1045.7 kg/m3
5556 kPa | 1045.9 kg/m3
5579 kPa | 1045.8 kg/m3
5603.2 kPa | 1045.8 kg/m3
5627.4 kPa | 1045.9 kg/m3
5651.3 kPa | 1045.8 kg/m3
5674.9 kPa | 1045.9 kg/m3
5703.6 kPa | 1045.9 kg/m3
5728 kPa | 1046 kg/m3
5753.1 kPa | 1045.9 kg/m3
5783.4 kPa | 1046 kg/m3
5808.8 kPa | 1046 kg/m3
5831.6 kPa | 1045.9 kg/m3
5852.2 kPa | 1046 kg/m3
5876.5 kPa | 1046.1 kg/m3
5897.6 kPa | 1046.1 kg/m3
5918.4 kPa | 1046.1 kg/m3
5939.8 kPa | 1046.1 kg/m3
5964.7 kPa | 1046.1 kg/m3
5986.2 kPa | 1046.1 kg/m3
6007.4 kPa | 1046.3 kg/m3
6033.9 kPa | 1046.1 kg/m3
6056.2 kPa | 1046.2 kg/m3
6079 kPa | 1046.2 kg/m3
6101.4 kPa | 1046.1 kg/m3
6124.1 kPa | 1046.2 kg/m3
6142.1 kPa | 1046.1 kg/m3
6159.7 kPa | 1046.1 kg/m3
6178 kPa | 1046.1 kg/m3
6190.3 kPa | 1046.2 kg/m3
6202.4 kPa | 1046.2 kg/m3
6213.1 kPa | 1046.2 kg/m3
6221.2 kPa | 1046.3 kg/m3
6226.4 kPa | 1046.2 kg/m3
6231.1 kPa | 1046.2 kg/m3
6237.5 kPa | 1046.3 kg/m3
6242.1 kPa | 1046.3 kg/m3
6247.5 kPa | 1046.2 kg/m3
6252.7 kPa | 1046.3 kg/m3
6258.9 kPa | 1046.2 kg/m3
6263.7 kPa | 1046.2 kg/m3
6268.7 kPa | 1046.4 kg/m3
6273.9 kPa | 1046.3 kg/m3
6280.5 kPa | 1046.3 kg/m3
6285.5 kPa | 1046.3 kg/m3
6290.3 kPa | 1046.4 kg/m3
6296 kPa | 1046.2 kg/m3
6300.7 kPa | 1046.2 kg/m3
6304.9 kPa | 1046.2 kg/m3
6309.5 kPa | 1046.2 kg/m3
6312.6 kPa | 1046.3 kg/m3
6314.7 kPa | 1046.4 kg/m3
6316.4 kPa | 1046.2 kg/m3
6325.3 kPa | 1046.3 kg/m3
6353.3 kPa | 1046.3 kg/m3
6384.4 kPa | 1046.4 kg/m3
6414.9 kPa | 1046.3 kg/m3
6445.5 kPa | 1046.5 kg/m3
6469.5 kPa | 1046.4 kg/m3
6493.9 kPa | 1046.3 kg/m3
6597.9 kPa | 1046.5 kg/m3
6628 kPa | 1046.5 kg/m3
6653.7 kPa | 1046.6 kg/m3
6679.6 kPa | 1046.5 kg/m3
6706.4 kPa | 1046.5 kg/m3
6732.8 kPa | 1046.5 kg/m3
6763.9 kPa | 1046.7 kg/m3
